These results are taken from patent publication US20230000894A1, “TREATING MITOCHONDRIAL DNA DEPLETION DISORDERS” (MITORAINBOW THERAPEUTICS, INC., priority 2019, published 2023).

Data set [1] in a line: Systemic exposure of dC and dT after oral dCMP+dTMP vs intravenous dC(P2)dT (Example 1). It counts as in vivo. The note with it: for metabolism in vivo (detectability of administered labeled analyte in plasma) / higher oral dose needed to deliver comparable plasma exposure of the corresponding nucleoside compared with intravenous dC(P2)dT: in vivo. As to the method:
The systemic exposure of two mononucleotides (dCMP and dTMP) and their corresponding mononucleosides (dC and dT) following oral dosing of two mononucleotides (dCMP & dTMP) vs. intravenous dosing of a dinucleotide (dC(P2)dT) was determined. Test articles were prepared as follows:
Unlabeled test articles: dC=Deoxycytidine (nucleoside) dT=Deoxythymidine (nucleoside) dCMP=Deoxycytidine monophosphate (mononucleotide) dTMP=Deoxythymidine monophosphate (mononucleotide) dC(P2)dT or dT(P2)dC=Deoxycytidine-deoxythymidine diphosphate (dinucleotide) Labeled test articles: dC*=^15N3 labeled dC (labeled nucleoside) dT**=^13C10 and ^15N2 labeled dT (labeled nucleoside) The corresponding labeled nucleotides are dC*MP and dT**MP The corresponding labeled dinucleotide is dC*(P2)dT** or dT**(P2)dC*.
The nucleosides (dC and dT) and their corresponding monophosphate nucleotides (dCMP and dTMP) are naturally produced in the body. In order to differentiate naturally occurring vs exogenously administered dC/dT and dCMP/dTMP, a mixture of labeled dC*MP/dT**MP and unlabeled dCMP/dTMP was dosed via oral route, and a mixture of labeled dC*(P2)dT** and unlabeled dC(P2)dT via I.V. route. The labeled test articles served as tracers for the determination of systemic levels of exogenous dC/dT and dCMP/dTMP following dosing.
Plasma samples were then analyzed for the following analytes: dT**, dC*, dT**MP, dC*MP, and dC*(P2)dT**.
To correct for total TA (labeled+unlabeled) administered, the plasma levels of labeled analytes were multiplied by 10 and 5 for the P.O. and I.V. treatment groups, respectively. In addition, the total TA dose administered by P.O route was 1000 mg/kg (900 mg/kg unlabeled+100 mg/kg labeled) and 10 mg/kg (8 mg/kg unlabeled and 2 mg/kg labeled) for P.O. and I.V. treatment groups, respectively. To normalize by unit dose of TA administered the plasma levels of analytes were divided by 1000 and 10 for P.O. and I.V. treatment groups, respectively. The results of the label-corrected and dose-normalized levels of dT and dC for P.O. and I.V. routes of administration are shown in FIG. 2.
The differences in the AUC0-24h for I.V. vs. P.O. for both analytes are statistically different (p<0.01, t-test). The ratios of I.V./P.O. AUC(0-24h)'s are approximately 350 for dT and […].

A short description of data set [2]: Systemic exposure of dC and dT after a single I.V. vs one and two S.C. injections of dC(P2)dT (Example 2). The note with it: rats, 10 mg/kg total per dose (2 labeled + 8 unlabeled), initial 24 h post-dose. It counts as in vivo. As to the method:
The systemic exposure of dC and dT following a single I.V. injection of dC(P2)dT vs one and two subcutaneous (S.C.) injections of dC(P2)dT was compared, where the second S.C. injection is administered 24 h after the first.
Plasma levels of label-normalized dT and dC levels following a single I.V. and one and two S.C. administrations of labeled and unlabeled dC(P2)dT groups are shown in FIG. 4.

Turning to `Nc1ccn([C@H]2C[C@H](O)[C@@H](COP(=O)(O)O)O2)c(=O)n1` [dC*MP], the “metabolism in vivo (detectability of administered labeled analyte in plasma)” value in data set [1] was “rapid metabolism”.
Consider `Nc1ccn([C@H]2C[C@H](O)[C@@H](COP(=O)(O)O)O2)c(=O)n1` [dCMP, Deoxycytidine monophosphate], for which the “higher oral dose needed to deliver comparable plasma exposure of the corresponding nucleoside compared with intravenous dC(P2)dT” value in data set [1] is reported as “approximately 110 fold”.
As for `Cc1cn([C@H]2C[C@H](O)[C@@H](COP(=O)(O)O)O2)c(=O)[nH]c1=O` [dT**MP], the “metabolism in vivo (detectability of administered labeled analyte in plasma)” value in data set [1] is “rapid metabolism”.
For `Cc1cn([C@H]2C[C@H](O)[C@@H](COP(=O)(O)O)O2)c(=O)[nH]c1=O` [dTMP, Deoxythymidine monophosphate], the “higher oral dose needed to deliver comparable plasma exposure of the corresponding nucleoside compared with intravenous dC(P2)dT” value in data set [1] was “approximately 350 fold”.
For the compound “Deoxycytidine-deoxythymidine diphosphate [dC(P2)dT]”, in data set [2], the “mean AUC0-24h of dT and dC in plasma, I.V. vs one and two S.C. administrations” value is listed as “not statistically different”. Also, the “ratio of plasma AUC0-24h I.V. vs P.O. for dC” value in data set [1] (label-corrected, dose-normalized total dC in plasma, I.V. dC(P2)dT 10 mg/kg total vs P.O. dCMP+dTMP 1000 mg/kg total, p<0.01, t-test) is reported as ~110 fold. For the same compound, the “ratio of plasma AUC0-24h I.V. vs P.O. for dT” value in data set [1] (label-corrected, dose-normalized total dT in plasma, I.V. dC(P2)dT 10 mg/kg total vs P.O. dCMP+dTMP 1000 mg/kg total, p<0.01, t-test) was “approximately 350 fold”.
